Molecules are shown by their SMILES. Structures can show the parent of a compound that is named as a salt. Where two headings read alike, the source gives them in different places.

Data on 33 compounds can be found in patent US20170247393A1, “Aminoisoxazoline Compounds as Agonists of Alpha7-Nicotinic Acetylcholine Receptors” (Forum Pharmaceuticals, Inc., priority 2015, published 2017).

The target in experiment [1] is T1, human 5-HT3 serotonin receptors (Homo sapiens, UniProt P46098).
T1 sequence (P46098 24-478): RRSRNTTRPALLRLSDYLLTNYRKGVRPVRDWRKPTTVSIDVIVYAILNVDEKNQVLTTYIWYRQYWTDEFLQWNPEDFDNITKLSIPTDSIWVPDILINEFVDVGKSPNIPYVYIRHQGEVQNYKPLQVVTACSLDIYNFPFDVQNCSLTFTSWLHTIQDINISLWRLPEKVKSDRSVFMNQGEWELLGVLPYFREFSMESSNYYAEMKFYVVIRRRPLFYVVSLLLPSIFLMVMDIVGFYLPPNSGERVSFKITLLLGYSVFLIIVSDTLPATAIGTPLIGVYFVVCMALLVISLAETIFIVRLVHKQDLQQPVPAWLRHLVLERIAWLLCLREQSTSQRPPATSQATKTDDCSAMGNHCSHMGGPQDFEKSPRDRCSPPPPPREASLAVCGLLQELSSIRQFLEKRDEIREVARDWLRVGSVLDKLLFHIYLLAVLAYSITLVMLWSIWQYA
The experiment in a line: biochemical. Type of experiment: binding.

For the next experiment, the target named is human α7 nAChR (Homo sapiens, UniProt P36544). The note with it: reference compound in the above described human α7 nAChR binding assay provided by Cerep.
human α7 nAChR, sequence (P36544 23-502): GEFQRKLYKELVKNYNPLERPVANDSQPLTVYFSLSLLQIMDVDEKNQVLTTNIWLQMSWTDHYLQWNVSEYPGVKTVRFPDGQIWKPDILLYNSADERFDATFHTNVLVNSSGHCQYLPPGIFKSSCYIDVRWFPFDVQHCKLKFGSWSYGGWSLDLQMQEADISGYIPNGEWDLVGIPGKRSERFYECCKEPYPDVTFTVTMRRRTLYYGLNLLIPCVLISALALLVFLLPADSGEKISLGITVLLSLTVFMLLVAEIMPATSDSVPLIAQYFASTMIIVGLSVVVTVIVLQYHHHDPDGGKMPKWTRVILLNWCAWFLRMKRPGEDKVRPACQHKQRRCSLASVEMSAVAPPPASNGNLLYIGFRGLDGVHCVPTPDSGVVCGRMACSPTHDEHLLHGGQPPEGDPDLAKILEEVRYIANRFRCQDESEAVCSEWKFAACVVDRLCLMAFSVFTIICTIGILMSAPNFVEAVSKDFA
For experiment [2], the target named is recombinantly expressed human α7-nAChR (Homo sapiens, UniProt P36544). The settings on record: literature value, [125I] α-BTX radioligand, read-out: Ki (lit); cited from earlier work.
recombinantly expressed human α7-nAChR, sequence (P36544 23-502): as above
[3] abbreviates: CHO cell membranes expressing human 5-HT3 receptors, [3H]BRL 43694, 120 min at room temperature, read-out: h-5HT3 Ki.

As usually defined, the Ki is a measure of affinity in units of concentration, obtained from inhibition or displacement. `Cc1nc2ccc(NC3=NO[C@@]4(C3)CN3CCC4CC3)cc2s1` [(R)-50, (R)—N-(2-methylbenzo[d]thiazol-6-yl)-4H-1′-azaspiro[isoxazole-5,3′-bicyclo[2.2.2]octan]-3-amine hydrochloride]: the Ki in experiment [1] (setting [3]) is 6.2 µM.
As for `Cc1cc2cnc(NC3=NO[C@@]4(C3)CN3CCC4CC3)nc2s1` [(R)-52, (R)—N-(6-methylthieno[2,3-d]pyrimidin-2-yl)-4H-1′-azaspiro[isoxazole-5,3′-bicyclo[2.2.2]octan]-3-amine hydrochloride], the inhibitory constant (Ki) in experiment [1] (setting [3]) was more than 10 µM.
Still for that read-out and setting: then `Cc1cc2ccc(NC3=NO[C@@]4(C3)CN3CCC4CC3)nc2s1` [(R)-53, (R)—N-(2-methylthieno[2,3-b]pyridin-6-yl)-4H-1′-azaspiro[isoxazole-5,3′-bicyclo[2.2.2]octan]-3-amine hydrochloride], with more than 10 µM; and `Clc1cc2ccc(NC3=NO[C@@]4(C3)CN3CCC4CC3)cc2s1` [(R)-54, (R)—N-(2-chlorobenzo[b]thiophen-6-yl)-4H-F-azaspiroksoxazole-5,3^1-bicyclo[2.2.2]octan1-3-amine hydrochloride], with more than 10 µM; and `Fc1sc2cc(NC3=NO[C@@]4(C3)CN3CCC4CC3)ccc2c1F` [(R)-55, hydrochloride], with 2.2 µM.
As to `Cc1csc2cc(NC3=NO[C@@]4(C3)CN3CCC4CC3)ccc12` [(R)-56, (R)—N -(3-methylbenzo[b]thiophen-6-yl)-4H-1′-azaspiro[isoxazole-5,3′-bicyclo[2.2.2]octan]-3-amine hydrochloride], the Ki in experiment [1] (setting [3]) was more than 10 µM.
`Cc1ccc2cc(NC3=NO[C@@]4(C3)CN3CCC4CC3)ncc2c1` [(R)-59, (R)—N-(7-methylisoquinolin-3-yl)-4H-1′-azaspiro[isoxazole-5,3′-bicyclo[2.2.2]octan]-3-amine hydrochloride]: in experiment [1] (setting [3]), the Ki is more than 10 µM.
Regarding `Cc1ccc2cnc(NC3=NO[C@@]4(C3)CN3CCC4CC3)cc2c1` [(R)-60, (R)—N-(6-methylisoquinolin-3-yl)-4H-1′-azaspiro[isoxazole-5,3′-bicyclo[2.2.2]octan]-3-amine hydrochloride], the Ki in experiment [1] (setting [3]) is more than 10 µM.
Same read-out and setting: for `Fc1cc2cnc(NC3=NO[C@@]4(C3)CN3CCC4CC3)cc2cc1F` [(R)-61, (R)—N-(6,7-difluoroisoquinolin-3-yl)-4H-1′-azaspiro[isoxazole-5,3′-bicyclo[2.2.2]octan]-3-amine hydrochloride] the value was more than 10 µM.
In the case of `Clc1cc2cnc(NC3=NO[C@@]4(C3)CN3CCC4CC3)cc2cc1Cl` [(R)-62, (R)—N-(6,7-dichloroisoquinolin-3-yl)-4H-1′-azaspiro[isoxazole-5,3′-bicyclo[2.2.2]octan]-3-amine trifluoroacetate], the Ki in experiment [1] is more than 10 µM.
`Clc1cc2ccc(NC3=NO[C@@]4(C3)CN3CCC4CC3)cc2o1` [(R)-63, (R)—N-(2-chlorobenzofuran-6-yl)-4H-1′-azaspiro[isoxazole-5,3′-bicyclo[2.2.2]octan]-3-amine hydrochloride]: the Ki in experiment [1] (setting [3]) is more than 10 µM.
Consider `Cn1ncc2ccc(NC3=NO[C@@]4(C3)CN3CCC4CC3)cc21` [(R)-64, (R)—N-(1-methyl-1H-indazol-6-yl)-4H-1′-azaspiro[isoxazole-5,3′-bicyclo[2.2.2]octan]-3-amine hydrochloride], for which the Ki in experiment [1] (setting [3]) is more than 10 µM.
On to `Cn1ncc2cc(NC3=NO[C@@]4(C3)CN3CCC4CC3)ccc21` [(R)-65, (R)—N-(1-methyl-1H-indazol-5-yl)-4H-1′-azaspiro[isoxazole-5,3′-bicyclo[2.2.2]octan]-3-amine hydrochloride], for which the Ki in experiment [1] (setting [3]) is more than 10 µM.
As for `Cc1noc2cc(NC3=NO[C@@]4(C3)CN3CCC4CC3)ccc12` [(R)-66, (R)—N -(3-methylbenzo[d]isoxazol-6-yl)-4H-1′-azaspiro[isoxazole-5,3′-bicyclo[2.2.2]octan]-3-amine hydrochloride], the inhibition constant (Ki) in experiment [1] (setting [3]) turned out to be 4.5 µM.
In the case of `FC(F)(F)c1cc2ccc(NC3=NO[C@@]4(C3)CN3CCC4CC3)cc2s1` [(R)-67, (R)—N-(2-(trifluoromethyl)benzo[b]thiophen-6-yl)-4H-1′-azaspiro[isoxazole-5,3′-bicyclo[2.2.2]octan]-3-amine hydrochloride], the Ki in experiment [1] (setting [3]) is more than 10 µM.
As to `Cc1ccc2nc(NC3=NO[C@@]4(C3)CN3CCC4CC3)ncc2c1` [(R)-70, (R)—N-(6-methylquinazolin-2-yl)spiro[4H-isoxazole-5,3^1-quinuclidine]-3-amine], the Ki in experiment [1] (setting [3]) is more than 10 µM.
On the same count and under the same terms, for `Cc1ccc2cnc(NC3=NO[C@@]4(C3)CN3CCC4CC3)nc2c1` [(R)-71, (R)—N-(7-methylquinazolin-2-yl)-4H-1′-azaspiro[isoxazole-5,3′-bicyclo[2.2.2]octan]-3-amine hydrochloride] the value was 6.4 µM; for `Cc1nsc2cc(NC3=NO[C@@]4(C3)CN3CCC4CC3)ccc12` [(R)-72, (R)—N-(3-methylbenzo[d]isothiazol-6-yl)-4H-1′-azaspiro[isoxazole-5,3′-bicyclo[2.2.2]octan]-3-amine hydrochloride], more than 10 µM.
The compound `Clc1coc2cc(NC3=NO[C@@]4(C3)CN3CCC4CC3)ccc12` [(R)-73-1, (R)—N-(3-chlorobenzofuran-6-yl)-4H-1′-azaspiro[isoxazole-5,3′-bicyclo[2.2.2]octan]-3-amine hydrochloride] displayed a Ki in experiment [1] of 4.9 µM.
For `Cc1coc2cc(NC3=NO[C@@]4(C3)CN3CCC4CC3)ccc12` [(R)-74, (R)—N-(3-methylbenzofuran-6-yl)-4H-1′-azaspiro[isoxazole-5,3′-bicyclo[2.2.2]octan]-3-amine hydrochloride], in experiment [1] (setting [3]), the inhibition constant Ki was more than 10 µM.
`Cc1cc2cnc(NC3=NO[C@@]4(C3)CN3CCC4CC3)nc2o1` [(R)-75, (R)—N-(6-methylfuro[2,3-d]pyrimidin-2-yl)spiro[4H-isoxazole-5,3′-quinuclidine]-3-amine hydrochloride]: in experiment [1] (setting [3]), the Ki was more than 10 µM.
As to `Clc1csc2cc(NC3=NO[C@@]4(C3)CN3CCC4CC3)ccc12` [(R)-76, (R)—N -(3-chlorobenzo[b]thiophen-6-yl)-4H-1′-azaspiro[isoxazole-5,3′-bicyclo[2.2.2]octan]-3-amine hydrochloride], the Ki in experiment [1] (setting [3]) stood at 2.8 µM.
In the case of `Fc1c(Cl)sc2cc(NC3=NO[C@@]4(C3)CN3CCC4CC3)ccc12` [(R)-78, (R)—N-(2-chloro-3-fluorobenzo[b]thiophen-6-yl)-4H-1′-azaspiro[isoxazole-5,3′-bicyclo[2.2.2]octan]-3-amine hydrochloride], the inhibition constant Ki in experiment [1] (setting [3]) was more than 10 µM.
Take `c1cnc2cc(NC3=NO[C@@]4(C3)CN3CCC4CC3)ccc2c1` [(R)-79, (R)—N-(quinolin-7-yl)-4H-1′-azaspiro[isoxazole-5,3′-bicyclo[2.2.2]octan]-3-amine hydrochloride]: in experiment [1] (read-out: h-5HT3 Ki), the Ki amounted to 5.6 µM.
On to `c1cnc2ccc(NC3=NO[C@@]4(C3)CN3CCC4CC3)cc2c1` [(R)-80, (R)—N-(quinolin-6-yl)-41-1-1^1-azaspiro[isoxazole-5,3′-bicyclo[2.2.2]octan]-3-amine hydrochloride], for which the Ki in experiment [1] (setting [3]) is more than 10 µM.
Regarding `Fc1cc2cnc(NC3=NO[C@@]4(C3)CN3CCC4CC3)cc2cc1Cl` [(R)-81, (R)—N-(6-chloro-7-fluoroisoquinolin-3-yl)-4H-1′-azaspiro[isoxazole-5,3^1-bicyclo[2.2.2]octan]-3-amine hydrochloride], the Ki in experiment [1] (setting [3]) is more than 10 µM.
As for `Fc1cc2cc(NC3=NO[C@@]4(C3)CN3CCC4CC3)ncc2cc1Cl` [(R)-82, (R)—N-(7-chloro-6-fluoroisoquinolin-3-yl)-4H-1′-azaspiro[isoxazole-5,3′-bicyclo[2.2.2]octan]-3-amine hydrochloride], in experiment [1] (setting [3]), the Ki is more than 10 µM.
Same read-out and setting: then `FC(F)(F)c1ccc2cnc(NC3=NO[C@@]4(C3)CN3CCC4CC3)cc2c1` [(R)-83, (R)—N-(6-(trifluoromethypisoquinolin-3-yl)-4H-1′-azaspiro[isoxazole-5,3′-bicyclo[2.2.2]octan]-3-amine hydrochloride], with more than 10 µM.
With `Cc1cn2ccc(NC3=NO[C@@]4(C3)CN3CCC4CC3)cc2n1` [(R)-96, (R)-N-(2-methylimidazo[1,2-a]pyridin-7-yl)-4H-1′-azaspiro[isoxazole-5,3′-bicyclo[2.2.2]octan]-3-amine hydrochloride], in experiment [1], the Ki is more than 10 µM.
Take `Cc1cc2cnc(NC3=NO[C@@]4(C3)CN3CCC4CC3)cc2s1` [(R)-99, (R)-N-(2-methylthieno[3,2-c]pyridin-6-yl)spiro[4H-isoxazole-5,3′-quinuclidine]-3-amine hydrochloride]: the Ki in experiment [1] is more than 10 µM.
As for `Cc1cc2cnc(NC3=NO[C@@]4(C3)CN3CCC4CC3)cc2o1` [(R)-100, (R)-N-(2-methylfuro[3,2-c]pyridin-6-yl)spiro[4H-isoxazole-5,3′-quinuclidine]-3-amine hydrochloride], the Ki in experiment [1] is more than 10 µM.
Consider `Clc1cccc2nc(NC3=NO[C@]4(C3)CN3CCC4CC3)sc12` [(S)-11, (S)—N-(7-chlorobenzo[d]thiazol-2-yl)-4H-1′-azaspiro[isoxazole-5,3′-bicyclo[2.2.2]octan]-3-amine], for which the Ki in experiment [1] (setting [3]) amounted to 0.13 µM.
As for `Cc1ccc(-c2ccc(OC3CN4CCC3CC4)cn2)cc1` (stereo not shown) [AQW051], the Ki is 0.255 µM on human α7 nAChR and 0.028 µM in experiment [2].
